The values that follow come from US6803387B1, “Treatment of neuropathic pain or fibromyalgia” (Abbott GmbH & Co. KG, priority 1999, dated 2004).

This assay deals with neuropathic pain. Kind of assay: oral administration to a patient with neuropathic pain. It counts as in vivo, human. Particulars: one patient, 10 mg orally once daily for weight loss; pain returned on discontinuation, disappeared again on re-administration. The procedure: Sibutramine 10 mg was administered orally once daily for weight loss to a patient who also had neuropathic pain. The neuropathic pain disappeared. Therapy with sibutramine was discontinued and the neuropathic pain returned. When sibutramine was then administered again, the neuropathic pain disappeared.

The structures appear in SMILES notation.

As for `CC(C)CC(N(C)C)C1(c2ccc(Cl)cc2)CCC1` (stereo not shown) [Sibutramine, N,N-dimethyl-1-[1-(4-chlorophenyl)cyclobutyl]-3-methylbutylamine], the neuropathic pain result is given as “disappeared”.
